Data taken from US8211874B2, “Inhibition of thrombin generation” (Galderma Laboratories Inc., priority 2005, dated 2012).

What was measured:
[1] = system: plasma PT; assay: Prothrombin time (PT) in plasma; type: biochemical, human; settings: COL-3 10.72, 21.44 and 536 μM, FIG. 2
Procedure: (§1) COL-3 was dissolved in DMSO (dimethyl sulfoxide, Sigma, St. Louis, Mo.). Blood was drawn from 5 consented healthy volunteers into 3.2% citrate tubes.
(§2) Maximum amplitude (MA), angle, and R-value were recorded. For prothrombin time (PT) and activated partial thromboplastin time (aPTT) blood samples were centrifuged for 15 min at 3000× g to obtain plasma and COL-3 was added to a final concentration of 10.72, 21.44 and 536 μM. Testing was done using Start 4instrument (Diagnostic Stago, Parsippainy, N.J.) along with appropriate standards and controls.

[2] = system: thrombin generation; assay: Thrombin generation in platelet poor plasma (Thrombinoscope, Innovin or Actin trigger); type: biochemical, human; settings: COL-3 final concentration 10.72, 21.44 and 536 μl, Innovin 5 pM or Actin 1:20 trigger, FIGS. 1A and 1B
Procedure: as §1
For thrombin generation experiments 80 μl of platelet poor plasma containing either saline, DMSO or COL-3 at final concentration of […] and thrombin generation trigger (Innovin 5 pM, or Actin 1:20 dilution, Dade Behring, Marburg, Germany) were added to 96 well microtiter plate (Microfluor-2, Thermolabsystems, Franklin Mass.) followed by 20 μl of calcium-substrate (Z-GGR-AMC, Bachem, Switzerland) buffer. The reaction was monitored by measuring increase in fluorescence at 390 nm excitation and 460 nm emission wavelengths and the acquired data was processed for lag time and peak thrombin generation parameters using Thrombinoscope software (Thrombinoscope BV, Maastricht, the Netherlands). The data were imported into excel file and the % decrease in thrombin generation due to COL-3 was calculated. Data were analyzed using repeated ANOVA p<0.05 was considered significant.

[3] = system: whole blood; assay: TEG (Thromboelastograph) of whole blood activated with tissue factor; type: cell-based, human; settings: COL-3 10.72 or 21.44 μM, TF 4 pM
Procedure: as §1
For TEG (Thromboelastograph, Haemoscope Corp, Skokie Ill.) whole blood samples (0.34 ml) were added to cups along with 10 μl of saline (control), DMSO, or COL-3 (final concentration of 10.72 or 21.44 μM). After addition of calcium chloride (20 μl of 0.2 M), samples were activated with TF (tissue factor) (4 pM) and TEGs (thrombelastogram) were run according to manufacturers directions.
as §2

[4] = system: platelets; assay: Platelet aggregation (light transmittance aggregometer, ADP and collagen activators); type: cell-based, human; settings: 200,000 platelets/μl; ADP and collagen (20 μM) as activators
Procedure: as §1
For platelet aggregation studies platelet rich and platelet poor plasma was separated by centrifugation. All platelet studies were performed in a total volume of 500 μl with 200,000 platelets/μl. Platelet aggregation was quantitated by measuring changes in light transmittance in dual channel aggregometer (Chronolog Corp. Havertown, Pa.) using ADP (adenosine di-phosphate) and collagen (final concentration 20 μM) as activators.

[5] = system: plasma aPTT; assay: Activated partial thromboplastin time (aPTT) in plasma; type: biochemical, human; settings: COL-3 10.72, 21.44 and 536 μM, FIG. 2
Procedure: as §1, §2

[6] = Plasma concentration in humans after daily dose; type: in vivo; settings: dose of about 10 to about 20 mg/day

SMILES: NC(=O)C1=C(O)C[C@@H]2C[C@@H]3Cc4cccc(O)c4C(=O)C3=C(O)[C@]2(O)C1=O [COL-3, 6-demethyl-6-deoxy-4-de(dimethylamino)tetracycline]
- PT values [1]: increased only at the highest concentration
- thrombin generation [2]: dose dependent reduction
- TEG parameters (maximum amplitude (MA), angle, R-value) [3]: no effect
- platelet aggregation [4]: no effect
- aPTT values [5]: increased only at the highest concentration
- plasma concentrations in humans [6]: about 1.0 μg/ml
